Several values for one entry are separate records, joined by “and”; a condition that tells them apart may be missing. Equal entries are not always repeated.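 Cells were grown in 96-well plates and exposed to each compound for 48 hours at five concentrations; endpoints were interpolated linearly between bracketing concentrations, or set to the highest concentration if not reached. The concentration for 50% growth inhibition is given as GI50. TGI: concentration producing complete growth inhibition.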
How the values were obtained:
Experiment in all cases: growth of human tumour cells (NCI), 48 h
MALME-3M melanoma = tested on: MALME-3M melanoma
OVCAR-8 ovarian = tested on: OVCAR-8 ovarian
U251 CNS = tested on: U251 CNS
RPMI-8226 leukemia = tested on: RPMI-8226 leukemia
RXF 393 renal = tested on: RXF 393 renal
NCI-H226 lung = tested on: NCI-H226 lung
NCI-H460 lung = tested on: NCI-H460 lung
SF-268 CNS = tested on: SF-268 CNS
SK-MEL-2 melanoma = tested on: SK-MEL-2 melanoma
LOX IMVI melanoma = tested on: LOX IMVI melanoma
CCRF-CEM leukemia = tested on: CCRF-CEM leukemia
SNB-75 CNS = tested on: SNB-75 CNS

Compound	TGI (MALME-3M melanoma)	TGI (OVCAR-8 ovarian)	TGI (U251 CNS)	TGI (RPMI-8226 leukemia)	TGI (RXF 393 renal)	TGI (NCI-H226 lung)	TGI (NCI-H460 lung)	TGI (SF-268 CNS)	TGI (SK-MEL-2 melanoma)	TGI (LOX IMVI melanoma)	TGI (CCRF-CEM leukemia)	TGI (SNB-75 CNS)	GI50 (SNB-75 CNS)	GI50 (OVCAR-8 ovarian)	GI50 (RPMI-8226 leukemia)	GI50 (RXF 393 renal)	GI50 (NCI-H460 lung)	GI50 (SF-268 CNS)	GI50 (LOX IMVI melanoma)	GI50 (CCRF-CEM leukemia)
N#Cc1c(-c2cccc(Br)c2)cc(-c2ccc(Cl)cc2)nc1N	70.9 µM	> 100 µM	32.8 µM	45.7 µM	34.6 µM	38.1 µM	50.8 µM	73.6 µM	31.5 µM	30.5 µM	87.5 µM	–	–	–	–	–	–	–	–	–
COc1cccc(N2C(=O)CSC2c2c[nH]c3ccccc23)c1 (stereo not drawn)	–	> 100 µM	> 100 µM	–	> 100 µM	–	> 100 µM	> 100 µM	–	> 100 µM	> 100 µM	> 100 µM	–	–	–	–	–	–	–	–
COC(=O)C1C(O)C(C)C(O)C(C)/C=C\C=C(C)C(=O)Nc2c(C)c(OC(C)=O)c3c(c2O)C(=O)C(C)=C2OCOC(=C23)C(C)=CC(C)(O)C(O)C(C)C1O (stereo not drawn)	> 100 µM	47 µM and > 100 µM	> 100 µM	41.3 µM and > 100 µM	51.9 µM and > 100 µM	> 100 µM	> 100 µM	> 100 µM	36.2 µM and > 100 µM	41 µM and > 100 µM	50.9 µM and > 100 µM	> 100 µM	35.3 µM and 5.07 µM	23.6 µM	15.9 µM and 64.3 µM	20.9 µM and > 100 µM	20.5 µM and > 100 µM	39.4 µM	17.9 µM and 41.3 µM	18.9 µM and 54.7 µM
O=S(=O)(O)c1ccc(N=Nc2c(O)ccc3ccccc23)cc1	> 100 µM	> 100 µM	> 100 µM	> 100 µM	> 100 µM	> 100 µM	> 100 µM	> 100 µM	> 100 µM	> 100 µM	> 100 µM	> 100 µM	–	–	–	–	–	–	–	–
O=c1cnn(C/C=C/CP(=O)(O)O)c(=O)[nH]1	> 100 µM	> 100 µM	> 100 µM	> 100 µM	> 100 µM	> 100 µM	> 100 µM	> 100 µM	> 100 µM	> 100 µM	–	> 100 µM	–	–	–	–	–	–	–	–
CC[N+](C)(C)c1ccc(C(=C2C=CC(=[N+](C)C)C=C2)c2ccc(N(C)C)cc2)cc1	66.3 µM	64.9 µM	14 µM	7.36 µM	> 100 µM	52.8 µM	22.4 µM	32.4 µM	56.8 µM	24.2 µM	33.5 µM	33.8 µM	–	–	–	–	–	–	–	–
COc1cc2c(cc1C)NC(=O)/C2=C\c1cccnc1	30.2 µM	72.6 µM	> 100 µM	55.5 µM	43.1 µM	–	85.4 µM	50 µM	76.1 µM	> 100 µM	> 100 µM	50.2 µM	–	–	–	–	–	–	–	–
O=S(=O)(O)c1cc(S(=O)(=O)O)c2c(N=Nc3ccccc3)c(O)ccc2c1	–	> 100 µM	> 100 µM	> 100 µM	> 100 µM	> 100 µM	–	> 100 µM	> 100 µM	> 100 µM	> 100 µM	> 100 µM	–	–	–	–	–	–	–	–
CC(C)OP(=O)(OC(C)C)c1nn(-c2ccc([N+](=O)[O-])cc2)c(=N)s1	> 100 µM	> 100 µM	> 100 µM	> 100 µM	–	–	> 100 µM	> 100 µM	–	–	> 100 µM	95.5 µM	–	–	–	–	–	–	–	–
COc1cccc2c1C(=O)c1c(O)c3c(c(O)c1C2=O)CC(O)(C(C)=O)CC3OC1CC([N+](C)(C)C)C(O)C(C)O1 (stereo not drawn)	> 100 µM	> 100 µM	> 100 µM	> 100 µM	> 100 µM	> 100 µM	> 100 µM	> 100 µM	> 100 µM	> 100 µM	> 100 µM	> 100 µM	–	–	–	–	–	–	–	–
CC1=CC(=C(c2ccc(N)c(C)c2)c2ccc(N)c(C)c2)C=CC1=N	11.2 µM	18.3 µM	12.8 µM	29.6 µM	51.2 µM	33.6 µM	> 31.6 µM	17.8 µM	7.48 µM	15.3 µM	23 µM	8.91 µM	–	–	–	–	–	–	–	–
OC12c3ccccc3C1CCCCCCCCCC21OCCCO1 (stereo not drawn)	> 100 µM	> 100 µM	–	> 100 µM	–	> 100 µM	–	> 100 µM	–	> 100 µM	> 100 µM	> 100 µM	–	–	–	–	–	–	–	–
O=S(=O)(O)c1cccc2ccc(O)c(N=Nc3ccc(S(=O)(=O)c4ccc(N=Nc5c(O)ccc6cccc(S(=O)(=O)O)c56)cc4)cc3)c12	> 100 µM	> 100 µM	> 100 µM	> 100 µM	> 100 µM	> 100 µM	–	> 100 µM	> 100 µM	–	> 100 µM	> 100 µM	–	–	–	–	–	–	–	–
COC1C(=[N+]=[N-])C(=O)NC(=O)N1C1OC(COC(c2ccccc2)(c2ccccc2)c2ccccc2)C(O)C1O (stereo not drawn)	33.8 µM	36.9 µM	35.5 µM	61.8 µM	–	32.1 µM	60.6 µM	35.7 µM	38.4 µM	30.1 µM	41.6 µM	29.5 µM	–	–	–	–	–	–	–	–
CCC(C)C1=C(O)[N+]2([O-])Oc3ccc(-c4c(O)c(O)c(-c5ccc(O)cc5)c(OC(C)=O)c4OC(C)=O)cc3OC2(C(C)CC)C(=O)N1O (stereo not drawn)	> 50 µM	> 50 µM	> 50 µM	> 50 µM	> 50 µM	> 50 µM	> 50 µM	> 50 µM	> 50 µM	> 50 µM	9.65 µM	> 50 µM	–	–	–	–	–	–	–	–

— PubChem BioAssay (NCI)
